Our source for the fold change (FC), Activity and inhibition values is ChEMBL document CHEMBL2429758, “3-aroylmethylene-2,3,6,7-tetrahydro-1H-pyrazino[2,1-a]isoquinolin-4(11bH)-ones as potent Nrf2/ARE inducers in human cancer cells and AOM-DSS treated mice” (J Med Chem, 2013).

The source made the active and inactive calls. The calls are words filed in the database; no cut-off is given here.

In data set [1] the target is T1, Nuclear factor erythroid 2-related factor 2 (Homo sapiens) (UniProt Q16236).
T1 sequence (whole entry): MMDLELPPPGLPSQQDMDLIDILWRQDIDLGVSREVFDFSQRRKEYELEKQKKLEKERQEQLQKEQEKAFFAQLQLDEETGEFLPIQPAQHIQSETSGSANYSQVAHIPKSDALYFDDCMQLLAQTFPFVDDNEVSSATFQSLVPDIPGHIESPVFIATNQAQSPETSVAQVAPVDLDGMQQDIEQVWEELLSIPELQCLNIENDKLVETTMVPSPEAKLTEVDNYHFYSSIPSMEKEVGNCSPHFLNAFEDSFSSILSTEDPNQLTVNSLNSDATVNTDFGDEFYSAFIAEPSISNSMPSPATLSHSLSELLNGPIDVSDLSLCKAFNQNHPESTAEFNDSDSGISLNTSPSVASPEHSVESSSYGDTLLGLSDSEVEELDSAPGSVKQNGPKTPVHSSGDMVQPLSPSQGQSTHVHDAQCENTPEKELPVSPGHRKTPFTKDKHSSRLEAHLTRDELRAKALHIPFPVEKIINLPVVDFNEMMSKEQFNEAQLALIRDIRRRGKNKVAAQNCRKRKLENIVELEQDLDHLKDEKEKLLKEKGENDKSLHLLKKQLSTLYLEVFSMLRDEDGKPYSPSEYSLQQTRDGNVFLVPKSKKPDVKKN
Description: Induction of Nrf2-mediated ARE activity in human HepG2-ARE-C8 cells at 80 uM after 12 hrs by luciferase reporter gene assay relative to control. In kind it is cell-based. A general note: Reporter assays use an easily measured gene product as a stand-in for the process of interest.

In data set [2] the target is T1, Nuclear factor erythroid 2-related factor 2 (Homo sapiens). The experiment in a line: Induction of Nrf2-mediated ARE activity in human HepG2-ARE-C8 cells at 40 uM after 12 hrs by luciferase reporter gene assay relative to control. It counts as cell-based.
The target is the same in data set [3]. The experiment in a line: Induction of Nrf2-mediated ARE activity in human HepG2-ARE-C8 cells at 20 uM after 12 hrs by luciferase reporter gene assay relative to control. It counts as cell-based.
Data set [4] has the same target. The experiment in a line: Induction of Nrf2-mediated ARE activity in human HepG2-ARE-C8 cells at 10 uM after 12 hrs by luciferase reporter gene assay relative to control. In kind it is cell-based.
Data set [5] has the same target. The experiment in a line: Induction of Nrf2-mediated ARE activity in human HepG2-ARE-C8 cells at 5 uM after 12 hrs by luciferase reporter gene assay relative to control. It counts as cell-based.
For data set [6] the target is unchanged. Description: Induction of Nrf2-mediated ARE activity in human HepG2-ARE-C8 cells at 1 uM after 12 hrs by luciferase reporter gene assay relative to control. In kind it is cell-based.
In data set [7] the test system is Mus musculus. Description: Toxicity in azoxymethane dextran sodium sulfate C57BL/6 mouse model assessed as sign of toxicity at 50 mg/kg/day treated with food measured after 130 days. In kind it is organism-based. The following applies: in vivo, 3120 h.
The test system of data set [8] is Mus musculus. Description: Toxicity in azoxymethane dextran sodium sulfate C57BL/6 mouse model assessed as change body weight at 50 mg/kg/day treated with food measured after 130 days. In kind it is organism-based. As to conditions: in vivo, 3120 h.
For data set [9], the system named is Mus musculus. Description: Antiinflammatory activity in azoxymethane dextran sodium sulfate C57BL/6 mouse model assessed as reduction of IL-6 expression at 50 mg/kg/day treated with food measured after 130 days by immunohistochemical analysis. It counts as functional, organism-based.
The test system of data set [10] is Mus musculus. Description: Antiinflammatory activity in azoxymethane dextran sodium sulfate C57BL/6 mouse model assessed as reduction of IL-1beta expression at 50 mg/kg/day treated with food measured after 130 days by immunohistochemical analysis. It counts as functional, organism-based.
Data set [11] relates to Mus musculus. The experiment in a line: Chemopreventive activity in azoxymethane dextran sodium sulfate C57BL/6 mouse model assessed as reduction of developed dysplasia at 50 mg/kg/day treated with food measured after 130 days by hematoxylin and eosin staining. It counts as functional, organism-based.
Data set [12] concerns Mus musculus. Description: Chemopreventive activity in azoxymethane dextran sodium sulfate C57BL/6 mouse model assessed as increase of lymphocyte ratio at 50 mg/kg/day treated with food measured after 130 days (reference value: 87.75 +/- 2.16%). In kind it is functional.
Data set [13] concerns Mus musculus. The experiment in a line: Chemopreventive activity in azoxymethane dextran sodium sulfate C57BL/6 mouse model assessed as reduction of neutrophils ratio at 50 mg/kg/day treated with food measured after 130 days (reference value: 12.73 +/- 1.65%). It counts as functional. Details: scale not given: the % may be the effect or the level left.
Data set [14] has as its system Mus musculus. Description: Chemopreventive activity in azoxymethane dextran sodium sulfate C57BL/6 mouse model assessed as increase of WBC level at 50 mg/kg/day treated with food measured after 130 days (reference value: 5.33 +/- 1.34 10^9/L). In kind it is functional.
Data set [15] deals with Mus musculus. The experiment in a line: Chemopreventive activity in azoxymethane dextran sodium sulfate C57BL/6 mouse model assessed as reduction of length of colon at 50 mg/kg/day treated with food measured after 130 days (reference value: 5.62 +/- 0.69 centimeter). In kind it is functional.
Data set [16] deals with Mus musculus. Description: Chemopreventive activity in azoxymethane dextran sodium sulfate C57BL/6 mouse model assessed as reduction of tumor burden at 50 mg/kg/day treated with food measured after 130 days. It counts as functional, organism-based.
For data set [17], the system named is Mus musculus. The experiment in a line: Chemopreventive activity in azoxymethane dextran sodium sulfate C57BL/6 mouse model assessed as reduction of average size of tumor at 50 mg/kg/day treated with food measured after 130 days. It counts as functional.
Data set [18] concerns Mus musculus. The experiment in a line: Chemopreventive activity in azoxymethane dextran sodium sulfate C57BL/6 mouse model assessed as reduction of multiplicity of tumor at 50 mg/kg/day treated with food measured after 130 days. In kind it is functional, organism-based.
Data set [19] deals with Mus musculus. The experiment in a line: Chemopreventive activity in azoxymethane dextran sodium sulfate C57BL/6 mouse model assessed as reduction of tumor incidence at 50 mg/kg/day treated with food measured after 130 days. In kind it is functional. Also noted: scale not given: the % may be the effect or the level left.
Data set [20] concerns the target T1, Nuclear factor erythroid 2-related factor 2 (Homo sapiens). The experiment in a line: Induction of Nrf2 nuclear translocation in human HCT116 cells at 10 uM by Western blot analysis. It counts as cell-based. As to conditions: HCT-116. (A western blot detects proteins with antibodies after separation by electrophoresis.)
The test system of data set [21] is HCT-116. The experiment in a line: Induction of NQO1 expression in human HCT116 cells up to 24 hrs by Western blot analysis. In kind it is functional, cell-based.
Data set [22] deals with HCT-116. Description: Induction of HO-1 expression in human HCT116 cells up to 8 hrs by Western blot analysis. In kind it is functional, cell-based.
Data set [23] has as its system HCT-116. The experiment in a line: Induction of NQO1 expression in human HCT116 cells at 10 uM by Western blot analysis. In kind it is functional, cell-based. The following applies: TDE = time-dependent effect.
The test system of data set [24] is HCT-116. Description: Induction of HO-1 expression in human HCT116 cells at 10 uM by Western blot analysis. In kind it is functional, cell-based. The following applies: TDE = time-dependent effect.
The target of data set [25] is T1, Nuclear factor erythroid 2-related factor 2 (Homo sapiens). Description: Induction of Nrf2-mediated ARE activity in human HepG2-ARE-C8 cells after 12 hrs by luciferase reporter gene assay. In kind it is cell-based.
Data set [26] shares this target. Description: Induction of Nrf2-mediated ARE activity in human HepG2-ARE-C8 cells at 0.1 uM after 12 hrs by luciferase reporter gene assay relative to control. In kind it is cell-based.
Data set [27] has the same target. Description: Induction of Nrf2-mediated ARE activity in human HepG2-ARE-C8 cells at 0.01 uM after 12 hrs by luciferase reporter gene assay relative to control. In kind it is cell-based.
Data set [28] concerns Mus musculus. The experiment in a line: Chemopreventive activity in azoxymethane dextran sodium sulfate C57BL/6 mouse model assessed as induction of Nrf2 nuclear translocation at 50 mg/kg/day treated with food measured after 130 days immunofluorescence analysis. It counts as functional, organism-based.

In the case of `CC(C)(C)c1cc(O)ccc1O`, the fold change (FC) turned out to be 5.21 in [1]; 3.24 in [2]; 2.06 in data set [3]; 1.5 in data set [4]; 1.04 in data set [5].

Consider `C[S+]([O-])CCCCN=C=S` (stereo unspecified), for which the fold change (FC) in data set [3] came out at 18.1; in [4] it was 8.35; in data set [5], 5.52; in data set [6], 2.7.

For the compound `O=C(/C=C1\NCC2c3ccccc3CCN2C1=O)c1ccccc1` (stereo unspecified), the Activity entry in data set [7] is on record as “Non-toxic”; in [8] it was “Non-toxic”; in [12], 88.15%; in data set [13] it was 12.39%; in data set [14], 5.67 ×10⁹ /L; in data set [15] it was 4.59 cm. The Activity in [17] is 2.2 mm; in data set [19], 50%; in [21], “Dose-dependent effect”; in data set [22], “Dose-dependent effect”; in [23] it was “tde”; in data set [24] it was “tde”. In [25], the Activity result was “Dose-dependent effect”. The inhibition result in [9] and in data set [10] was “Active” each time. Further, the result in data set [11], in data set [16], in data set [18], in data set [20] and in [28] was Active. The fold change (FC) in data set [4] came to 26.9; in data set [5], 18.9; in [6] it was 9.51; in data set [26], 5.44; in [27], 2.

For `O=C(/C=C1\NCC2c3ccccc3CCN2C1=O)c1cccc(F)c1` (stereo unspecified), the Activity result in data set [21] and in [22] was “Dose-dependent effect” in each case. Further, the fold change (FC) is 33 in data set [4]; 29.1 in [5]; 9.99 in data set [6]; 3.89 in [26]; 2.18 in data set [27].
